Measurements as given in patent US20230148184A1, “COMPOUNDS AND METHODS FOR MODULATING SPLICING” (REMIX THERAPEUTICS INC., priority 2020, published 2023).
pIC50: −log10 of the molar value.

Columns and labels:
Format in all cases: cell-based
Target C CJ mRNA = assay: Gene panel canonical junction qPCR assay, Target C; details: decrease in CJ mRNA levels, RT-qPCR
Experimental: (§1) Compounds described herein were used to modulate RNA transcript abundance in cells. The expression of a target mRNA was measured by detecting the formation of an exon-exon junction in the canonical transcript (CJ). A compound mediated exon-inclusion event was detected by observing an increase in formation of a new junction with an alternative exon (AJ). Real-time qPCR assays were used to detect these splicing switches and interrogate the potency of various compounds towards different target genes. A high-throughput real time quantitative PCR (RT-qPCR) assay was developed to measure these two isoforms of the mRNA (CJ and AJ) for an exemplary gene, HTT, together with a control housekeeping gene, GAPDH or GUSB or PPIA, used for normalization. Briefly, the A673 or K562 cell line was treated with various compounds described herein (e.g., compounds of Formula (I)). After treatment, the levels of the HTT mRNA targets were determined from each sample of cell lysate by cDNA synthesis followed by qPCR.
(§2) The A673 cell line was cultured in DMEM with 10% FBS. Cells were diluted with full growth media and plated in a 96-well plate (15,000 cells in 100 ul media per well). The plate was incubated at 37° C. with 5% CO2 for 24 hours to allow cells to adhere. An 11-point 3-fold serial dilution of the compounds was made in DMSO then diluted in media in an intermediate plate. Compounds were transferred from the intermediate plate to the cell plate with the top dose at a final concentration of 10 uM in the well. Final DMSO concentration was kept at or below 0.25%. The cell plate was returned to the incubator at 37° C. with 5% CO2 for an additional 24 hours.
(§3) The K562 cell line was cultured in IMDM with 10% FBS. For K562, cells were diluted with full growth media and plated in either a 96-well plate (50,000 cells in 50 uL media per well) or a 384-well plate (8,000-40,000 cells in 45 uL media per well). An 11-point 3-fold serial dilution of the compounds were made in DMSO then diluted in media in an intermediate plate. Compound was transferred from the intermediate plate to the cell plate with the top dose at a final concentration of 10 uM in the well. Final DMSO concentration was kept at or below 0.25%. Final volume was 100 uL for 96-well plate and 50 uL for 384-well plate. The cell plate was then placed in an incubator at 37° C. with 5% CO2 for 24 hours.
(§4) The cells were then gently washed with 50 uL-100 uL cold PBS before proceeding to addition of lysis buffer. 30 uL-50 uL of room temperature lysis buffer with DNAse I (and optionally RNAsin) was added to each well. Cells were shaken/mixed thoroughly at room temperature for 5-10 minutes for lysis to take place and then 3 uL-5 uL of room temperature stop solution was added and wells were shaken/mixed again. After 2-5 minutes, the cell lysate plate was transferred to ice for RT-qPCR reaction setup. The lysates could also be frozen at −80° C. for later use.
(§5) In some cases, a direct lysis buffer was used. An appropriate volume of 3× lysis buffer (10 mM Tris, 150 mM NaCl, 1.5%-2.5% Igepal and 0.1-1 U/uL RNAsin, pH 7.4) was directly added to either K562 or A673 cells in media and mixed by pipetting 3 times. The plates were then incubated at room temperature with shaking/rocking for 20-50 minutes to allow for lysis to take place. After this time, the cell lysate plate was transferred to ice to set up for the RT-qPCR reactions. The lysates could also be frozen at −80° C. for later use.
(§6) To set up 10 uL RT-qPCR reactions, cell lysates were transferred to 384-well qPCR plates containing the master mix according to the table below. The plates were sealed, gently vortexed, and spun down before the run. The volumes were adjusted accordingly in some instances where the reaction was carried in 20 uL. The table below summarizes the components of the RT-qPCR reactions:
(§7) The RT-qPCR reaction was performed using a QuantStudio (ThermoFisher) under the following fast cycling conditions. […]

HTT mRNA = assay: RT-qPCR splicing assay for HTT mRNA isoforms (canonical junction CJ and alternative junction AJ); details: A673 or K562 cell line, 24 hours compound treatment; for AC50: increase in AJ mRNA; for pIC50: decrease in CJ mRNA
Experimental: as §1
Cells-to-CT 1-step kit: ThermoFisher A25602, Cells-to-CT lysis reagent: ThermoFisher 4391851C, TaqMan™ Fast Virus 1-Step Master Mix: ThermoFisher 4444436 GAPDH: VIC-PL, ThermoFisher 4326317E (Assay: Hs99999905_m1)—used for K562/suspension cell lines GUSB: VIC-PL, ThermoFisher 4326320E (Assay: Hs99999908_m1)—used for K562/suspension cell lines PPIA: VIC-PL, ThermoFisher 4326316E (Assay: Hs99999904_m1)—used for A673/adherent cell lines
as §2, §3, §4
as §5, with “use. […]” for “use.”

HTT CJ mRNA = assay: Gene panel canonical junction qPCR assay, HTT; details: decrease in CJ mRNA levels, RT-qPCR
Experimental: as §1, §2, §3, §4, §5, §6, §7

SMN2 CJ mRNA = assay: Gene panel canonical junction qPCR assay, SMN2; details: decrease in CJ mRNA levels, RT-qPCR
Experimental: as §1, §2, §3, §4, §5, §6, §7

| SMILES | pIC50 (Target C CJ mRNA) | AC50 (HTT mRNA) [µM] | pIC50 (HTT CJ mRNA) | pIC50 (HTT mRNA) | pIC50 (SMN2 CJ mRNA) |
| --- | --- | --- | --- | --- | --- |
| C[C@@H]1C[C@H](N(C)c2ccc3c(c2)OCc2cc(-c4cn[nH]c4)ccc2-3)CCN1 [Compound 101, (2R,4R)—N,2-dimethyl-N-[8-(1H-pyrazol-4-yl)-6H-benzo[c]chromen-3-yl] piperidin-4-amine] | < 5.00 | > 10 |  |  |  |
| C[C@H]1C[C@H](N(C)c2ccc3c(c2)OCc2cc(-c4cn[nH]c4)ccc2-3)CCN1 [Compound 102, (2S,4R)—N,2-dimethyl-N-[8-(1H-pyrazol-4-yl)-6H-benzo[c]chromen-3-yl]piperidin-4-amine] | < 5.00 | > 10 | < 5.00 | < 5.00 |  |
| CN(c1ccc2c(c1)OCc1cc(-c3cn[nH]c3)ccc1-2)[C@@H]1C[C@H]2CC[C@@H](C1)N2 [Compound 104, (1R,3S,5S)—N-Methyl-N-[8-(1H-pyrazol-4-yl)-6H-benzo[c]chromen-3-yl]-8-azabicyclo[3.2.1]octan-3-amine] | < 5.00 | > 10 | < 5.00 | < 5.00 |  |
| CN(c1ccc2c(c1)COc1cc(-n3cccn3)ccc1-2)[C@@H]1C[C@H]2CC[C@@H](C1)N2 [Compound 105] |  | > 10 | < 5.00 | < 5.00 | < 5.00 |
| CN(c1ccc2c(n1)COc1cc(-n3cccn3)ccc1-2)[C@@H]1C[C@H]2CC[C@@H](C1)N2 [Compound 109] |  | 0.1 to 1 |  | 6.00 to 7.00 |  |
| CN(c1ccc2c(c1)CCOc1cc(-c3cn[nH]c3)ccc1-2)[C@@H]1C[C@H]2CC[C@@H](C1)N2 [Compound 112] | < 5.00 |  |  |  |  |
| CN(c1ccc2c(n1)CCOc1cc(-c3cn[nH]c3)ccc1-2)C1CC(C)(C)NC(C)(C)C1 [Compound 114, N-methyl-13-(1H-pyrazol-4-yl)-N-(2,2,6,6-tetramethylpiperidin-4-yl)-10-oxa-6-azatricyclo[9.4.0.0^[2,7]]pentadeca-1(11),2(7),3,5,12,14-hexaen-5-amine] | > 7.00 | < 0.1 | 6.00 to 7.00 | 6.00 to 7.00 |  |
| CN(c1ccc2c(c1)COc1cc(-n3cccn3)ccc1-2)C1CC(C)(C)NC(C)(C)C1 [Compound 117, N,2,2,6,6-pentamethyl-N-[3-(pyrazol-1-yl)-6H-benzo[c]chromen-8-yl]piperidin-4-amine] |  | > 10 | < 5.00 | < 5.00 | < 5.00 |
| CC1(C)CC(Nc2ccc3c(c2)COc2cc(-n4cccn4)ccc2-3)CC(C)(C)N1 [Compound 118, 2,2,6,6-tetramethyl-N-[3-(pyrazol-1-yl)-6H-benzo[c]chromen-8-yl]piperidin-4-amine] |  | > 10 | < 5.00 | < 5.00 | < 5.00 |
| c1cnn(-c2ccc3c(c2)OCc2cc(N[C@@H]4C[C@H]5CC[C@@H](C4)N5)ccc2-3)c1 [Compound 119] | 5.00 to 6.00 | > 10 | < 5.00 | < 5.00 |  |
| CN(c1ccc2c(n1)CCOc1cc(-c3cn[nH]c3)ccc1-2)[C@@H]1C[C@H]2CC[C@@H](C1)N2 [Compound 127, N-[(1R,3S,5S)-8-azabicyclo[3.2.1]octan-3-yl]-N-methyl-13-(1H-pyrazol-4-yl)-10-oxa-6-azatricyclo[9.4.0.0^[2,7]]pentadeca-1(11),2(7),3,5,12,14-hexaen-5-amine] |  | > 10 | < 5.00 | < 5.00 | < 5.00 |
| CN(c1ccc2c(n1)CCOc1cc(-n3cccn3)ccc1-2)[C@@H]1C[C@H]2CC[C@@H](C1)N2 [Compound 128, N-[(1R,3S,5S)-8-azabicyclo[3.2.1]octan-3-yl]-N-methyl-13-(pyrazol-1-yl)-10-oxa-6-azatricyclo[9.4.0.0^[2,7]]pentadeca-1(11),2(7),3,5,12,14-hexaen-5-amine] | < 5.00 | > 10 | < 5.00 | < 5.00 |  |
| c1cc2c(cc1N[C@@H]1C[C@H]3CC[C@@H](C1)N3)CCOc1cc(-c3cn[nH]c3)ccc1-2 [Compound 132, N-[5-(1H-pyrazol-4-yl)-8-oxatricyclo[9.4.0.0^[2,7]]pentadeca-1(11),2(7),3,5,12,14-hexaen-13-yl]-8-azabicyclo [3.2.1] octan-3-amine] | < 5.00 | > 10 | < 5.00 | < 5.00 |  |
| CN(c1ccc2c(c1)CCOc1cc(-n3cccn3)ccc1-2)[C@@H]1C[C@H]2CC[C@@H](C1)N2 [Compound 138, (1R,3S,5S)—N-methyl-N-[5-(pyrazol-1-yl)-8-oxatricyclo[9.4.0.0^[2,7]]pentadeca-1(11),2(7), 3,5,12,14-hexaen-13-yl]-8-azabicyclo [3.2.1] octan-3-amine] | 5.00 to 6.00 | 1 to 10 | 5.00 to 6.00 | 5.00 to 6.00 |  |
| c1cc2c(cc1-c1cn[nH]c1)OCCc1nc(N[C@@H]3C[C@H]4CC[C@@H](C3)N4)ccc1-2 [Compound 140, N-[(1R,3S,5S)-8-azabicyclo[3.2.1]octan-3-yl]-13-(1H-pyrazol-4-yl)-10-oxa-6-azatricyclo[9.4.0.0^[2,7]]pentadeca-1(11),2(7),3,5,12,14-hexaen-5-amine] |  | > 10 | < 5.00 | < 5.00 | < 5.00 |
| CC1(C)CC(Nc2ccc3c(n2)CCOc2cc(-c4cn[nH]c4)ccc2-3)CC(C)(C)N1 [Compound 141, 13-(1H-pyrazol-4-yl)-N-(2,2,6,6-tetramethylpiperidin-4-yl)-10-oxa-6-azatricyclo[9.4.0.0^[2,7]]pentadeca-1(11),2(7),3,5,12,14-hexaen-5-amine] | 5.00 to 6.00 | > 10 | < 5.00 | < 5.00 |  |
| CCN(c1ccc2c(n1)OCc1cc(-n3cccn3)ccc1-2)[C@@H]1C[C@H]2CCC[C@@H](C1)N2 [Compound 195] | 5.00 to 6.00 |  | 6.00 to 7.00 |  | 6.00 to 7.00 |
| c1cnn(-c2ccc3c(c2)COc2nc(N(C4CC4)[C@@H]4C[C@H]5CCC[C@@H](C4)N5)ccc2-3)c1 [Compound 203] |  | 1 to 10 |  | 5.00 to 6.00 |  |
| CC1(C)CC(N(c2ccc3c(n2)OCc2cc(-n4cccn4)ccc2-3)C2CC2)CC(C)(C)N1 [Compound 204] |  | > 10 |  | 5.00 to 6.00 |  |
| c1cnn(-c2ccc3c(c2)COc2nc(N(C4CC4)[C@@H]4C[C@H]5CC[C@@H](C4)N5)ccc2-3)c1 [Compound 205] |  | 0.1 to 1 |  | 5.00 to 6.00 |  |
| Cc1cnc(-c2ccc3c(c2)COc2nc(N(C)[C@@H]4C[C@H]5CC[C@@H](C4)N5)ccc2-3)o1 [Compound 206] |  | 0.1 to 1 |  | 6.00 to 7.00 |  |
